Experimental data from patent US8833306B2, “PACAP for aquatic organism culture” (priority 2005, dated 2014).
No end group written: not given here.

Columns and labels:
[1] = test system: tilapia Oreochromis niloticus; assay: Effect of recombinant PACAP on juvenile tilapia appetite (ingested food); assay type: in vivo; conditions: i.p. 0.1 μg/g; 6 hours and 22 hours; p<0.05
Method: To analyze the effect of the PACAP in the fish appetite, we used tilapia of the Oreochromis niloticus species, without sex distinction and approximately the same average body weight. Three experimental groups were formed having 3 individuals in each and 3 replicates per group. The groups were acclimated in separated tanks with stable water recirculation, to a temperature of 28° C. and with the photoperiod of 14 hours light and 10 hours dark. […] The second group was treated with the GHRP-6 (Lipotec, S.A, Spain) by the same administration via at the dose of 0.1 μg of the peptide by gram of the animal corporal weight. The control group was treated with E. coli proteins contained in PBS 1× (E. coli proteins were obtained by the same purification procedure of the interest peptide, with the amount equivalent of the contaminants presents in the purified PACAP sample). After the treatments, the same amount of food was added to the three experimental groups, collecting the non ingested food in 6 hour and adding food again. The appetite was measured again, 22 hours from the beginning of the experiment. The food not ingested in each tank was dried in the stove (100° C., during 24 h) and was weighed in an analytical balance. The ingested food was calculated determining the difference between the food added to the tanks (10 grams, with a 20% of humidity) and the food not ingested by the fish.

[2] = test system: juvenile Clarias gariepinus; assay: Growth stimulation in Clarias gariepinus by recombinant PACAP in the fish diet; assay type: in vivo; conditions: in the diet at 5 mg/Kg of feed; 30 days; p<0.01
Method: The Pichia pastoris culture supernatant containing the recombinant PACAP (SEQ ID No. 14) was concentrated and formulated in the nutritional fish diet to a concentration of approximately 5 mg/Kg of feed. Two experimental groups were formed having 100 larvae in each with an average body weight of 0.1 g. One group was treated with recombinant PACAP (SEQ ID No. 14) containing in P. pastoris culture supernatants and the other used as a control group was treated with non-transformed P. pastoris culture supernatant. The experiment was carried out during 30 days.

Substance	appetite (ingested food) compared with control group [1]	growth increase compared with control group [2]
GHRP-6	significant appetite increase	
PACAP (SEQ ID No. 14): Clarias gariepinus recombinant PACAP variant contained in P. pastoris culture supernatants; used in Examples 6-8 (HSDGIFTDSYSRYRKQMAVKKYLAAVLGRRYRQRFRNK; ends and bridges not checked; listed as Clarias gariepinus)		30%
